Results as given in patent US20260327195A1, “2-STYRYLBENZOTHIAZOLE DERIVATIVES AS ALPHA-SYNUCLEIN BINDING COMPOUNDS” (Eberhard Karls Universität Tübingen Medizinische Fakultät, priority 2023, published 2026).
Where “and” joins values, the source holds several entries; their conditions need not be identical. Equal entries are not always repeated. Where two headings read alike, the source gives them in different places.

Assays:
[1] = target: T1, human recombinant αSYN fibrils (Homo sapiens, UniProt P37840); assay: [3H]MODAG-001 competition binding assay on αSYN fibrils; conditions: for competition with [3H]MODAG-001: result in words
Protocol: (§1) Concentrations of αSYN and Aβ1-42 fibrils were as described above.
Plates were incubated on a shaker (MaxQ 6000, Thermo Fisher Scientific Inc., Marietta, OH, USA) at 50 rpm for 2 hours at 37° C., covered by removable sealing tapes (PerkinElmer, Waltham, MA, USA). Vacuum filtration and read-out were performed as disclosed in Kuebler, L. et al., [^11C]MODAG-001-towards a PET tracer targeting α-synuclein aggregates; European Journal of Nuclear Medicine and Molecular Imaging 2020, 48, 1759-1772. […] Data points were fitted using non-linear regression analysis in GraphPad Prism (GraphPad Software, Inc., Version 8.4.0, La Jolla, USA).

[2] = target: T1, human recombinant αSYN fibrils; assay: [3H]PiB competition binding assay on αSYN fibrils; conditions: for Ki: competition against 6 nM [3H]PiB, read-out: Ki (mean ± SEM)
Protocol: as §1
Plates were incubated on a shaker (MaxQ 6000, Thermo Fisher Scientific Inc., Marietta, OH, USA) at 50 rpm for 2 hours at 37° C., covered by removable sealing tapes (PerkinElmer, Waltham, MA, USA). […] Data points were fitted using non-linear regression analysis in GraphPad Prism (GraphPad Software, Inc., Version 8.4.0, La Jolla, USA).

[3] = target: T2, synthetic human Aβ1-42 fibrils (Homo sapiens, UniProt P05067); assay: [3H]PiB competition binding assay on Aβ fibrils; conditions: result in words; FIG. 4b, 6b
T2 construct: chain cut from APP
T2 sequence (P05067 672-713): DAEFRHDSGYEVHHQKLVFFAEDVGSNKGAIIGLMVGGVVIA
From the text: The method for Aβ1-42 fibrils generation was adapted from Bagchi, D. P. et al., Binding of the radioligand SIL23 to alpha-synuclein fibrils in Parkinson disease brain tissue establishes feasibility and screening approaches for developing a Parkinson disease imaging agent; PLoS One 2013, 8 (2), e55031, and described in Kuebler, L. et al., [^11C]MODAG-001-towards a PET tracer targeting α-synuclein aggregates; European Journal of Nuclear Medicine and Molecular Imaging 2020, 48, 1759-1772. Synthetic lyophilized human Aβ1-42 peptide (5 mg) with >90% purity (EMC Microcollections, Tuebingen, Germany) was dissolved in DMSO (221.5 μL), followed by the addition of deionized water (4.1 mL) and 1 M Tris-HCl (111 μL, pH 7.6) to reach a final monomeric concentration of 250 μM. Aggregation was induced by incubation in Eppendorf Thermomixer at 37° C. with shaking at 800 rpm for 72 hours. […]
Plates were incubated on a shaker (MaxQ 6000, Thermo Fisher Scientific Inc., Marietta, OH, USA) at 50 rpm for 2 hours at 37° C., covered by removable sealing tapes (PerkinElmer, Waltham, MA, USA). Vacuum filtration and read-out were performed as disclosed in Kuebler, L. et al., [^11C]MODAG-001-towards a PET tracer targeting α-synuclein aggregates; European Journal of Nuclear Medicine and Molecular Imaging 2020, 48, 1759-1772. […]

[4] = target: αSYN pathology in PD human brain slices (Homo sapiens, UniProt P37840); assay: In vitro autoradiography on PD human brain slices (frontal cortex); format: binding; conditions: 10 nM tracer; NSB with 10 μM non-radioactive compound
Protocol: (§2) Post-mortem human brain slices (10 μm thickness) were obtained from and the subject cases were analyzed by the Neurobiobank München (NBM, Munich, Germany), where tissues were collected on the basis of written informed consent according to the guidelines of the ethics committee of the Ludwig-Maximilians-University Munich, Germany (#345-13). The use of brain tissue samples in this study was approved by the ethics committee of the Faculty of Medicine at the University of Tuebingen (Ethics approval number: 813/2018BO2). Table 1 summarizes the information of the subjects from which samples were obtained and used in the experiment.
For autoradiography, brain slices were thawed for one hour before pre-incubation in BSA buffer for 25 minutes at room temperature. To determine total binding (TB), brain slices were incubated with the tracer (10 nM [^18F]PFSB, 10 nM [^18F]MFSB). […]
Quantitative data analysis was performed by drawing four regions of interest (ROIs) in relevant areas of the slice and one ROI next to it for background subtraction (ImageJ 1.8.0_172, National Institute of Health, Bethesda, Maryland, USA) (Schneider, C. A. et al., NIH Image to ImageJ: 25 years of image analysis; Nat Methods 2012, 9 (7), 671-5). […] The SB disease/SB control ratio was calculated by dividing by the SB in diseased tissues with the respective SB in control tissues.

[5] = target: αSYN pathology in MSA human brain slices (Homo sapiens, UniProt P37840); assay: In vitro autoradiography on MSA human brain slices (cerebellum); format: binding
Protocol: as §2
(§3) For autoradiography, brain slices were thawed for one hour before pre-incubation in BSA buffer for 25 minutes at room temperature. To determine total binding (TB), brain slices were incubated with the tracer (10 nM [^18F]PFSB, 10 nM [^18F]MFSB). Incubation of consecutive slices with the correspondent non-radioactive compounds (10 μM PFSB, […]) was performed to determine non-specific binding (NSB). The non-radioactive compounds were prepared by dissolving in DMSO to 10 mM, which yielded DMSO concentration of ≤0.1% in the final solution. Incubation was carried out for one hour at room temperature with subsequent washing in cold BSA buffer (three times for ten minutes) followed by three dipping in cold deionized water. After drying under UV lamps, brain slices were exposed to a storage phosphor screen (Molecular Dynamics, Caesarea, Israel) for 18 hours, which was then scanned in a phosphor imager (STORM 840, Molecular dynamics, Sunnyvale, CA, USA).
(§4) Quantitative data analysis was performed by drawing four regions of interest (ROIs) in relevant areas of the slice and one ROI next to it for background subtraction (ImageJ 1.8.0_172, National Institute of Health, Bethesda, Maryland, USA) (Schneider, C. A. et al., NIH Image to ImageJ: 25 years of image analysis; Nat Methods 2012, 9 (7), 671-5). Specific binding (SB) is obtained by subtracting NSB from TB. The SB disease/SB control ratio was calculated by dividing by the SB in diseased tissues with the respective SB in control tissues.

[6] = target: T3, Aβ plaques in AD human brain slices (Homo sapiens, UniProt P05067); assay: In vitro autoradiography on AD human brain slices (frontal cortex); format: binding
T3 construct: mainly Abeta40/42 cut from APP) in post-mortem AD frontal cortex slices
T3 sequence (P05067 672-713 limits assumed): as the sequence (P05067 672-713) above
Protocol: as §2, §3, §4

[7] = non-methylated compounds, two data points (three for 9a, 14a, 15a, 17a, 18a; single for 12a)
[8] = methylated compounds, two data points
[9] = 10 nM tracer, NSB with 10 μM non-radioactive compound

Fc1ccc2nc(C=Cc3ccc(N4CCCCC4)cc3)sc2c1 (mixture of isomers) [Compound 9a, 6-fluoro-2-(4-(piperidin-1-yl)styryl)benzo[d]thiazole]
competition with [3H]MODAG-001 [1]: moderate to good competition

COc1cccc2sc(C=Cc3ccc(N4CCCCC4)cc3)nc12 [Compound 2a, 4-methoxy-2-(4-(piperidin-1-yl)styryl)benzo[d]thiazole]
Ki [2, 7]: > 400 nM

C[n+]1c(C=Cc2ccc(N3CCCCC3)cc2)sc2cccc(F)c21 [Compound 3b, 4-fluoro-3-methyl-2-(4-(piperidin-1-yl)styryl)benzo[d]thiazol-3-ium 4-nitrobenzenesulfonate]
Ki [2, 8]: > 400 nM

Cc1cccc2nc(C=Cc3ccc(N4CCCCC4)cc3)sc12 [Compound 10a, 7-methyl-2-(4-(piperidin-1-yl)styryl)benzo[d]thiazole]
Ki [2, 7]: > 400 nM

COc1cccc2nc(C=Cc3ccc(N4CCCCC4)cc3)sc12 [Compound 11a, 7-methoxy-2-(4-(piperidin-1-yl)styryl)benzo[d]thiazole]
Ki [2, 7]: > 400 nM

C[n+]1c(C=Cc2ccc(N3CCCCC3)cc2)sc2c(F)cccc21 [Compound 12b, 7-fluoro-3-methyl-2-(4-(piperidin-1-yl)styryl)benzo[d]thiazol-3-ium Iodide]
Ki [2, 8]: > 400 nM

C[n+]1c(-c2ccc(N3CCCCC3)cc2)sc2ccccc21 [Compound 13b, 3-methyl-2-(4-(piperidin-1-yl)phenyl)benzo[d]thiazol-3-ium]
Ki [2, 8]: > 400 nM

C(=Cc1nc2ccccc2s1)c1ccc(N2CCOCC2)cc1 [Compound 15a, 4-(4-(2-(benzo[d]thiazol-2-yl)vinyl)phenyl)morpholine]
affinity relative to N-piperidine analog 20 ([2]; result in words): comparable affinity

C[n+]1c(C=Cc2ccc(N3CCOCC3)cc2)sc2ccccc21 [Compound 15b, 3-methyl-2-(4-morpholinostyryl)benzo[d]thiazol-3-ium Iodide]
Ki [2, 8]: > 400 nM

C[n+]1c(C=Cc2ccc(N3CCSCC3)cc2)sc2ccccc21 [Compound 16b, 3-methyl-2-(4-thiomorpholinostyryl)benzo[d]thiazol-3-ium Iodide]
Ki [2, 8]: > 400 nM

C[n+]1c(C=Cc2ccc(N3CCC(F)CC3)cc2)sc2ccccc21 [Compound 18b, 2-(4-(4-fluoropiperidin-1-yl)styryl)-3-methylbenzo[d]thiazol-3-ium Iodide]
Ki [2, 8]: > 400 nM

CN(C)c1ccc(C=Cc2nc3ccccc3s2)cc1 [Compound 19a, 4-(2-(benzo[d]thiazol-2-yl)vinyl)-N,N-dimethylaniline]
Ki [2, 7]: > 400 nM

CN(C)c1ccc(C=Cc2sc3ccccc3[n+]2C)cc1 [Compound 19b, 2-(4-(dimethylamino)styryl)-3-methylbenzo[d]thiazol-3-ium Iodide]
Ki [2, 8]: > 400 nM

Fc1ccc2nc(C=CC=Cc3ccc(N4CCCCC4)cc3)sc2c1 [Compound 43, 6-fluoro-2-(4-(4-(piperidin-1-yl)phenyl)buta-1,3-dien-1-yl)benzo[d]thiazole]
competition with [3H]PiB / binding to Aβ fibrils [3]: the binding to Aβ remained low

Fc1ccc2nc(C=CC=Cc3ccc(N4CCCC4)cc3)sc2c1 [Compound 44, 6-fluoro-2-(4-(4-(pyrrolidin-1-yl)phenyl)buta-1,3-dien-1-yl)benzo[d]thiazole]
competition with [3H]PiB / binding to Aβ fibrils [3]: the binding to Aβ remained low

Fc1ccc2nc(C=Cc3ccc(N4CCOCC4)cc3)sc2c1 [Compound 45, 4-(4-(2-(6-fluorobenzo[d]thiazol-2-yl)vinyl)phenyl)morpholine]
fold lower Ki of MFSB than PFSB ([1]; [3H]MODAG-001 competition, versus PFSB): 4.6 fold | competition with [3H]MODAG-001 [1]: moderate to good competition | improvement of affinity (Ki) of MFSB compared to PFSB ([2]; [3H]PiB competition, versus PFSB): 2.5 factor

CN1CCN(c2ccc(C=Cc3sc4ccccc4[n+]3C)cc2)CC1 [RB2, 3-methyl-2-(4-(4-methylpiperazin-1-yl)styryl)benzo[d]thiazol-3-ium Iodide, reference compound]
Ki [2, 8]: > 400 nM

[18F]c1ccc2nc(/C=C/c3ccc(N4CCCCC4)cc3)sc2c1 [[^18F]PFSB]
SB disease/SB control, PD/frontal cortex ctrl [4]: 1.51 | SB disease/SB control, MSA1/cerebellum ctrl [5, 9]: 3.73 | SB disease/SB control, MSA2/cerebellum ctrl [5, 9]: 4.15 | specific binding ratio of MSA brain slices compared to the control ([5]; MSA patients, same brain area, 10 nM tracer): 3.94±0.30 | selectivity towards αSYN over Aβ ([5]; autoradiography, result in words, FIG. 12): selectivity towards αSYN over Aβ | affinity to αSYN pathology ([5]; result in words, FIG. 12): displayed affinity to αSYN pathology | SB disease/SB control, AD/frontal cortex ctrl [6, 9]: 1.06 and 1.03 | binding in AD brain regions with Aβ plaques / AD/frontal cortex SB ratio in words ([6]; result in words, FIG. 12): no increased binding
